The text below walks through data of US20260115185A1, “QUINOLINE DERIVATIVES WHICH ACT AS KAPPA-OPIOID RECEPTOR ANTAGONISTS” (The Scripps Research Institute, priority 2023, published 2026).

The target in assay [1] is T1, kappa opioid receptor (KOR) (Homo sapiens, UniProt P41145).
T1 construct: host or cells: U2OS (Tango OPRK1-bla U2OS)
Briefly: OPRKappa 1 Tango B-Arrestin Assay, antagonist mode (Tango OPRK1-bla U2OS cells, U50488 EC80 challenge). It counts as cell-based. Conditions: for Selectivity (MOR/KOR): Kappa selectivity, MOR IC50 / KOR IC50; for IC50: antagonist mode, Tango OPRK1-bla U2OS cells, 6 nM U50488 challenge. Put shortly:
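Tango OPRK1-bla U2OS cells, β-arrestin recruitment read as β-lactamase FRET (CCF4-AM, 460/590 nm emission). Compounds, 10-point 1:3 series from nominal 10 µM in quadruplicate, preincubated 30 min at 37 °C, then challenged with U50488 at 6 nM final (EC80) for 4 h; percent inhibition from median ratio.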

Assay [2] has as its target T2, mu opioid receptor (MOR) (Homo sapiens, UniProt P35372).
T2 construct: host or cells: U2OS (Discover X OPRMu1-U2OS, PathHunter)
Nature of the assay: OPRMu1 Discover X β-arrestin Assay, antagonist mode (U2OS cells, DAMGO EC80 challenge). It counts as cell-based. An outline of the steps: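 PathHunter U2OS cells with β-gal fragment-complementation readout for β-arrestin recruitment to OPRMu1. Cells were preincubated with compound (10-point, 1:3 series from nominal 10 micromolar) for 30 min at 37 °C, then challenged with 303 nM DAMGO (EC80) for 3 h. Luminescence gave percent inhibition.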

T1 sequence (P41145 whole entry): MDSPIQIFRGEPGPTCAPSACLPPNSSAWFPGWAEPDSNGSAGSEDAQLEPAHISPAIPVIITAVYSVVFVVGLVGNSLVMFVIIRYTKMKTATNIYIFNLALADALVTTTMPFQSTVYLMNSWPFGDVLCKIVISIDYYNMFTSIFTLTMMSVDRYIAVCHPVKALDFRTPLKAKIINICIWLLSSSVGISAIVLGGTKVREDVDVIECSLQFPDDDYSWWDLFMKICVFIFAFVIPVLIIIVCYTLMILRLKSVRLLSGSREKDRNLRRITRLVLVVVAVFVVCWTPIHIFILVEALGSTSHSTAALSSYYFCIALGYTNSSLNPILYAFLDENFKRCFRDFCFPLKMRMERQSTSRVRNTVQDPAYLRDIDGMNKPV
T2 sequence (P35372 whole entry): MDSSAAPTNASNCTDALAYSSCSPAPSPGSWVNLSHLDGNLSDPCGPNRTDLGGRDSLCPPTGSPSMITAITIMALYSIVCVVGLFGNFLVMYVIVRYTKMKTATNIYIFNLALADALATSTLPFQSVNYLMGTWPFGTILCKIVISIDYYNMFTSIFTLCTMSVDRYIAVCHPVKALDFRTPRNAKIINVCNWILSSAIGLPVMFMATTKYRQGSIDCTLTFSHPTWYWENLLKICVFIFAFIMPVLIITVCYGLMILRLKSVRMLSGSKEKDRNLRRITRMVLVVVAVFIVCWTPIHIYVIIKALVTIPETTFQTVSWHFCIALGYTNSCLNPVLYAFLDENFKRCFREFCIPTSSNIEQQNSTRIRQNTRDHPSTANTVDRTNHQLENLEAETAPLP

As for `CCc1cc(F)c2nc(N3CC[C@@H](NC[C@@H]4CCOC4)[C@@H](F)C3)c(-c3ccn(C)n3)c(C)c2c1` [Compound 204], in assay [1], the “Selectivity (MOR/KOR)” value is on record as “++++ (more than 1000-fold selectivity over MOR)” and the IC50 was < 1 nM. Further, the IC50 in assay [2] was in the range of 100 to 1000 nM.

In the case of `CCc1cc(F)c2nc(N3CCN(C(=O)[C@H]4CC(F)(F)CCN4C)C[C@H]3C)c(-c3nc(C)no3)c(C)c2c1` [Compound 205, ((R)-4,4-difluoro-1-methylpiperidin-2-yl)((R)-4-(6-ethyl-8-fluoro-4-methyl-3-(3-methyl-1,2,4-oxadiazol-5-yl)quinolin-2-yl)-3-methylpiperazin-1-yl)methanone], in assay [1], the “Selectivity (MOR/KOR)” value is “+++ (between 100- to 1000-fold selective)” and the IC50 lay within 1 to 10 nM. Besides, the IC50 in assay [2] is > 1000 nM.

As for `CCc1cc(F)c2nc(N3CCN(CC4(O)CCOCC4)C[C@H]3C)c(-c3nc(C)no3)c(C)c2c1` [Compound 206], in assay [1], the “Selectivity (MOR/KOR)” value is “++++ (more than 1000-fold selectivity over MOR)” and the IC50 was in the range of 1 to 10 nM. For the same compound, the IC50 in assay [2] was > 1000 nM.

For the compound `CCc1cc(F)c2nc(N3CCN(CC4(F)CCOCC4)C[C@H]3C)c(-c3nc(C)no3)c(C)c2c1` [Compound 207, (R)-5-(6-ethyl-8-fluoro-2-(4-((4-fluorotetrahydro-2H-pyran-4-yl)methyl)-2-methylpiperazin-1-yl)-4-methylquinolin-3-yl)-3-methyl-1,2,4-oxadiazole], in assay [1], the “Selectivity (MOR/KOR)” value is listed as “++++ (more than 1000-fold selectivity over MOR)” and the IC50 is 1 to 10 nM. Moreover, in assay [2], the half-maximal inhibitory concentration (IC50) was > 1000 nM.

By IC50 is commonly meant the concentration needed to halve the response being measured. A low value points to higher potency.
